Laboratory results from patent publication US20170050957A1, “4-AMINO-6-(HETEROCYCLIC)PICOLINATES AND 6-AMINO-2-(HETEROCYCLIC)PYRIMIDINE-4-CARBOXYLATES AND THEIR USE AS HERBICIDES” (Dow AgroSciences LLC, priority 2013, published 2017).
Read-outs that look alike come from different tables or passages of the source.

Columns and labels:
[1] = tested on: Key Broadleaf Weed and Crop Species; experiment: Post-emergent Test II herbicidal activity (Table 15); type: in vivo; details: post-emergence, 336 h, 14 d; for pest or weed control at 35 g/ha: 35 g ai/ha; for pest or weed control at 70 g/ha: 70 g ai/ha; for pest or weed control at 140 g/ha: 140 g ai/ha
How it was run: (§1)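 Visual injury rating (0 = none, 100 = complete kill) taken 14 d after treatment, relative to untreated plants. Compounds in acetone/DMSO with crop oil concentrate and Triton X-155 were track-sprayed at 187 L/ha onto seedlings at the first-second true leaf stage.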

[2] = tested on: Key Grass and Sedge Weeds as well as Grass Crops; experiment: Post-emergent Test II herbicidal activity (Table 16); type: in vivo; details: post-emergence, 336 h, 14 days after application; for pest or weed control at 35 g/ha: 35 g ai/ha; for pest or weed control at 70 g/ha: 70 g ai/ha; for pest or weed control at 140 g/ha: 140 g ai/ha
How it was run: as §1

[3] = Abutilon theophrasti, velvetleaf (Abutilon theophrasti), read-out: Visual Growth Reduction (%) 14 Days After Application, ABUTH
[4] = Brassica napus, oilseed rape, canola (Brassica napus), read-out: Visual Growth Reduction (%) 14 Days After Application, BRSNN
[5] = Chenopodium album, lambsquarters (Chenopodium album), read-out: Visual Growth Reduction (%) 14 Days After Application, CHEAL
[6] = Euphorbia heterophylla, wild poinsettia (Euphorbia heterophylla), read-out: Visual Growth Reduction (%) 14 Days After Application, EPHHL
[7] = Helianthus annuus, sunflower (Helianthus annuus), read-out: Visual Growth Reduction (%) 14 Days After Application, HELAN
[8] = Cyperus esculentus, yellow nutsedge (Cyperus esculentus), read-out: Visual Growth Reduction (%) 14 Days After Application CYPES
[9] = Echinochloa crus-galli, barnyardgrass (Echinochloa crus-galli), read-out: Visual Growth Reduction (%) 14 Days After Application ECHCG
[10] = Oryza sativa, rice (Oryza sativa), read-out: Visual Growth Reduction (%) 14 Days After Application ORYSA
[11] = Setaria faberi, giant foxtail (Setaria faberi), read-out: Visual Growth Reduction (%) 14 Days After Application SETFA
[12] = Triticum aestivum, wheat, spring (Triticum aestivum), read-out: Visual Growth Reduction (%) 14 Days After Application TRZAS
[13] = Zea mays, maize, corn (Zea mays), read-out: Visual Growth Reduction (%) 14 Days After Application ZEAMX
[14] = Amaranthus retroflexus, redroot pigweed (Amaranthus retroflexus), read-out: Visual Growth Reduction (%) 14 Days After Application, AMARE

Nc1c(Cl)c(C(=O)O)nc(-c2ccc3ccsc3c2)c1Cl [Compound 3.11]
pest or weed control at 35 g/ha [1, 3]: 0 to 29% | pest or weed control at 70 g/ha [1, 3]: 0 to 29% | pest or weed control at 140 g/ha [1, 3]: 0 to 29% | pest or weed control at 35 g/ha [1, 4]: 0 to 29% | pest or weed control at 70 g/ha [1, 4]: 0 to 29% | pest or weed control at 140 g/ha [1, 4]: 0 to 29% | pest or weed control at 35 g/ha [1, 5]: 85 to 94% | pest or weed control at 70 g/ha [1, 5]: 85 to 94% | pest or weed control at 140 g/ha [1, 5]: 85 to 94% | pest or weed control at 35 g/ha [1, 6]: 0 to 29% | pest or weed control at 70 g/ha [1, 6]: 0 to 29% | pest or weed control at 140 g/ha [1, 6]: 0 to 29% | pest or weed control at 35 g/ha [1, 7]: 85 to 94% | pest or weed control at 70 g/ha [1, 7]: 85 to 94% | pest or weed control at 140 g/ha [1, 7]: 85 to 94% | pest or weed control at 35 g/ha [2, 8]: 0 to 29% | pest or weed control at 70 g/ha [2, 8]: 0 to 29% | pest or weed control at 140 g/ha [2, 8]: 0 to 29% | pest or weed control at 35 g/ha [2, 9]: 0 to 29% | pest or weed control at 70 g/ha [2, 9]: 0 to 29% | pest or weed control at 140 g/ha [2, 9]: 0 to 29% | pest or weed control at 35 g/ha [2, 10]: 0 to 29% | pest or weed control at 70 g/ha [2, 10]: 0 to 29% | pest or weed control at 140 g/ha [2, 10]: 0 to 29% | pest or weed control at 35 g/ha [2, 11]: 0 to 29% | pest or weed control at 70 g/ha [2, 11]: 0 to 29% | pest or weed control at 140 g/ha [2, 11]: 0 to 29% | pest or weed control at 35 g/ha [2, 12]: 0 to 29% | pest or weed control at 70 g/ha [2, 12]: 0 to 29% | pest or weed control at 140 g/ha [2, 12]: 0 to 29% | pest or weed control at 35 g/ha [2, 13]: 0 to 29% | pest or weed control at 70 g/ha [2, 13]: 0 to 29% | pest or weed control at 140 g/ha [2, 13]: 0 to 29% | melting point: 239 °C (dec.)

COC(=O)c1nc(-c2ccc3ccsc3c2)c(F)c(N)c1Cl [Compound 3.12]
pest or weed control at 35 g/ha [1, 3]: 60 to 74% | pest or weed control at 70 g/ha [1, 3]: 95 to 100% | pest or weed control at 140 g/ha [1, 3]: 95 to 100% | pest or weed control at 35 g/ha [1, 14]: 60 to 74% | pest or weed control at 70 g/ha [1, 14]: 60 to 74% | pest or weed control at 140 g/ha [1, 14]: 85 to 94% | pest or weed control at 35 g/ha [1, 4]: 0 to 29% | pest or weed control at 70 g/ha [1, 4]: 0 to 29% | pest or weed control at 140 g/ha [1, 4]: 30 to 44% | pest or weed control at 35 g/ha [1, 5]: 95 to 100% | pest or weed control at 70 g/ha [1, 5]: 95 to 100% | pest or weed control at 140 g/ha [1, 5]: 95 to 100% | pest or weed control at 35 g/ha [1, 6]: 60 to 74% | pest or weed control at 70 g/ha [1, 6]: 60 to 74% | pest or weed control at 140 g/ha [1, 6]: 85 to 94% | pest or weed control at 35 g/ha [1, 7]: 85 to 94% | pest or weed control at 70 g/ha [1, 7]: 85 to 94% | pest or weed control at 140 g/ha [1, 7]: 85 to 94% | pest or weed control at 35 g/ha [2, 8]: 0 to 29% | pest or weed control at 70 g/ha [2, 8]: 0 to 29% | pest or weed control at 140 g/ha [2, 8]: 0 to 29% | pest or weed control at 35 g/ha [2, 9]: 85 to 94% | pest or weed control at 70 g/ha [2, 9]: 85 to 94% | pest or weed control at 140 g/ha [2, 9]: 85 to 94% | pest or weed control at 35 g/ha [2, 10]: 0 to 29% | pest or weed control at 70 g/ha [2, 10]: 0 to 29% | pest or weed control at 140 g/ha [2, 10]: 0 to 29% | pest or weed control at 35 g/ha [2, 11]: 0 to 29% | pest or weed control at 70 g/ha [2, 11]: 0 to 29% | pest or weed control at 140 g/ha [2, 11]: 0 to 29% | pest or weed control at 35 g/ha [2, 12]: 0 to 29% | pest or weed control at 70 g/ha [2, 12]: 0 to 29% | pest or weed control at 140 g/ha [2, 12]: 0 to 29% | pest or weed control at 35 g/ha [2, 13]: 95 to 100% | pest or weed control at 70 g/ha [2, 13]: 95 to 100% | pest or weed control at 140 g/ha [2, 13]: 95 to 100% | melting point: 185 to 189 °C

Nc1c(F)c(-c2ccc3ccsc3c2)nc(C(=O)O)c1Cl [Compound 3.13]
pest or weed control at 35 g/ha [1, 3]: 0 to 29% | pest or weed control at 70 g/ha [1, 3]: 0 to 29% | pest or weed control at 140 g/ha [1, 3]: 75 to 84% | pest or weed control at 35 g/ha [1, 14]: 95 to 100% | pest or weed control at 70 g/ha [1, 14]: 95 to 100% | pest or weed control at 140 g/ha [1, 14]: 95 to 100% | pest or weed control at 35 g/ha [1, 4]: 0 to 29% | pest or weed control at 70 g/ha [1, 4]: 0 to 29% | pest or weed control at 140 g/ha [1, 4]: 60 to 74% | pest or weed control at 35 g/ha [1, 5]: 85 to 94% | pest or weed control at 70 g/ha [1, 5]: 95 to 100% | pest or weed control at 140 g/ha [1, 5]: 95 to 100% | pest or weed control at 35 g/ha [1, 6]: 0 to 29% | pest or weed control at 70 g/ha [1, 6]: 0 to 29% | pest or weed control at 140 g/ha [1, 6]: 60 to 74% | pest or weed control at 35 g/ha [1, 7]: 85 to 94% | pest or weed control at 70 g/ha [1, 7]: 85 to 94% | pest or weed control at 140 g/ha [1, 7]: 85 to 94% | pest or weed control at 35 g/ha [2, 8]: 0 to 29% | pest or weed control at 70 g/ha [2, 8]: 0 to 29% | pest or weed control at 140 g/ha [2, 8]: 0 to 29% | pest or weed control at 35 g/ha [2, 9]: 60 to 74% | pest or weed control at 70 g/ha [2, 9]: 60 to 74% | pest or weed control at 140 g/ha [2, 9]: 75 to 84% | pest or weed control at 35 g/ha [2, 10]: 0 to 29% | pest or weed control at 70 g/ha [2, 10]: 0 to 29% | pest or weed control at 140 g/ha [2, 10]: 0 to 29% | pest or weed control at 35 g/ha [2, 12]: 0 to 29% | pest or weed control at 70 g/ha [2, 12]: 0 to 29% | pest or weed control at 140 g/ha [2, 12]: 0 to 29% | pest or weed control at 35 g/ha [2, 13]: 60 to 74% | pest or weed control at 70 g/ha [2, 13]: 60 to 74% | pest or weed control at 140 g/ha [2, 13]: 60 to 74% | melting point: 165 to 167 °C
